{"source": "patent US20080119510A1", "about": "“Substituted Imidazo [4,5-B] Pyridines As Inhibitors Of Gastric Acid Secretion” (Altana Pharma AG, priority 2004, published 2008)", "data": [{"system": "not given", "assay": "not given", "details": "not given", "units": {"melting point": "°C"}, "values": [{"molecule": "CCc1cccc(C)c1CNc1cc(C(=O)O)nc2c1nc(C)n2C", "note": "[Example 10, 7-(2-ethyl-6-methylbenzyl)amino-2,3-dimethyl-3H-imidazo[4,5-b]pyridine-5-carboxylic Acid]", "melting point": "235 to 238"}, {"molecule": "CCc1cccc(C)c1CNc1ccnc2c1nc(C)n2C", "note": "[Example 1, 7-(2-Ethyl-6-methylbenzyl)amino-2,3-dimethyl-3H-imidazo[4,5-b]pyridine]", "melting point": "105 to 109"}]}, {"system": "pentagastrin-stimulated acid secretion of the perfused rat stomach", "assay": "Secretion-inhibiting action on the perfused rat stomach (pentagastrin-stimulated acid secretion)", "assay_type": "in vivo", "details": "anesthetized CD rat, dose 3.0 μmol/kg i.d.", "description": "In Table A which follows, the influence of the compounds of the formula 1 according to the invention on the pentagastrin-stimulated acid secretion of the perfused rat stomach after intraduodenal administration in vivo is shown.\nThe abdomen of anesthetized rats (CD rat, female, 200-250 g; 1.5 g/kg i.m. urethane) was opened after tracheotomy by a median upper abdominal incision and a PVC catheter was fixed transorally in the esophagus and another via the pylorus such that the ends of the tubes just projected into the gastric lumen. The catheter leading from the pylorus led outward into the right abdominal wall through a side opening.\nAfter thorough rinsing (about 50-100 ml), warm (37° C.) physiological NaCl solution was continuously passed through the stomach (0.5 ml/min, pH 6.8-6.9; Braun-Unita I). The pH (pH meter 632, glass electrode EA 147; φ=5 mm, Metrohm) and, by titration with a freshly prepared 0.01 N NaOH solution to pH 7 (Dosimat 665 Metrohm), the secreted HCl were determined in the effluent in each case collected at an interval of 15 minutes.\nThe gastric secretion was stimulated by continuous infusion of […] (=1.65 ml/h) of i.v. pentagastrin (left femoral vein) about 30 min after the end of the operation (i.e. after determination of 2 preliminary fractions). The substances to be tested were administered intraduodenally in a 2.5 ml/kg liquid volume 60 min after the start of the continuous pentagastrin infusion. The body temperature of the animals was kept at a constant 37.8-38° C. by infrared irradiation and heat pads (automatic, stepless control by means of a rectal temperature sensor).", "units": {"Inhibition of acid secretion (%)": "%"}, "values": [{"molecule": "CCc1cccc(C)c1CNc1ccnc2c1nc(C)n2C", "note": "[Example 1, 7-(2-Ethyl-6-methylbenzyl)amino-2,3-dimethyl-3H-imidazo[4,5-b]pyridine]", "Inhibition of acid secretion (%)": ">30"}, {"molecule": "CCc1cccc(C)c1CNc1cc(C(=O)N(C)C)nc2c1nc(C)n2C", "note": "[Example 2, 5-(Dimethylaminocarbonyl)-7-(2-ethyl-6-methylbenzyl)amino-2,3-dimethyl-3H-imidazo[4,5-b]pyridine]", "Inhibition of acid secretion (%)": ">30"}, {"molecule": "CCc1cccc(C)c1CNc1cc(OC)nc2c1nc(C)n2C", "note": "[Example 6, 7-(2-Ethyl-6-methylbenzyl)amino-5-methoxy-2,3-dimethyl-3H-imidazo[4,5-b]pyridine]", "Inhibition of acid secretion (%)": ">30"}, {"molecule": "CCc1cccc(C)c1CNc1cc(C(=O)NCCO)nc2c1nc(C)n2C", "note": "[Example 5, 7-(2-Ethyl-6-methylbenzyl)amino-5-(2-hydroxyethylaminocarbonyl)-2,3-dimethyl-3H-imidazo[4,5-b]pyridine]", "Inhibition of acid secretion (%)": ">30"}, {"molecule": "CCc1cccc(C)c1CNc1cc(C(N)=O)nc2c1nc(C)n2C", "note": "[Example 3, 5-(Aminocarbonyl)-7-(2-ethyl-6-methylbenzyl)amino-2,3-dimethyl-3H-imidazo[4,5-b]pyridine]", "Inhibition of acid secretion (%)": ">30"}]}]}
